For one assay, the target named is T1, ACAT (Rattus norvegicus, UniProt Q7TQM4).
T1 construct: Rat liver microsomes are used as the source of ACAT; from tissue; host or cells: rat liver microsomes
T1 sequence (Q7TQM4 1-524): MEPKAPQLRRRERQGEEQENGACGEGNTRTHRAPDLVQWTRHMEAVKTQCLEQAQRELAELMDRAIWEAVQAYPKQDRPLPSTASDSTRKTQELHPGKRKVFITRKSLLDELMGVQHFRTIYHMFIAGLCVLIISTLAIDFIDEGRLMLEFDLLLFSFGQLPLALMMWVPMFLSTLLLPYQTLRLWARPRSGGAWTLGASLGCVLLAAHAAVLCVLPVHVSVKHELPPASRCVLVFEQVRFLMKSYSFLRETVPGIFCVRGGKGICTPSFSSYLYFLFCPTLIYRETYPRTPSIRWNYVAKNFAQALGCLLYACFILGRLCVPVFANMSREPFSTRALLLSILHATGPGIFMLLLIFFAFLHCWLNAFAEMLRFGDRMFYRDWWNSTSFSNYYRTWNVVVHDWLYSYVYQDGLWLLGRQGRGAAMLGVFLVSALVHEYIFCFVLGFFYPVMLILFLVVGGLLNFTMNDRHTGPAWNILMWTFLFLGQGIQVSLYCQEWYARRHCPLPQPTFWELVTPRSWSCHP
Kind of assay: ACAT Assay (in vitro). Format: biochemical. The settings on record: for inhibition at 10 µM: Conc. 10 µM, negative = apparent stimulation, read-out: ACAT (in vitro) % Inhib.

For a further assay, the system named is Hyperlipidemic Hamster. Nature of the assay: In Vivo Assay of Hypolipidemic Agents Using the Hyperlipidemic Hamster. The following applies: Mesocricetus auratus, po, 168 h, 50 mg/kg once daily oral, 7 days, percent change versus control, negative = lowering. The gist of the method:
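Hamsters, six per group, were fed chow with 0.5% cholesterol for seven days and given compound once daily by oral gavage in corn oil; controls received corn oil alone. Plasma (EDTA) and liver lipids were measured at sacrifice. Values are percent change versus control, so negative means lowering.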

[1] abbreviates: read-out: % Reduction (in vivo) Cholest. Esters.
The mark [2] stands for this setting: read-out: % Reduction (in vivo) Serum Cholest.

The structures appear in SMILES notation. Read-outs that look alike come from different tables or passages of the source.

For `COc1ccc([C@@H]2[C@@H](CCCc3ccccc3)C(=O)N2c2ccc(O)cc2)cc1` (relative stereo) [Example 10A], the inhibition at 10 µM on ACAT is -37%. The change in vivo at 50 mg/kg in the assay on Hyperlipidemic Hamster (setting [1]) is -58%; in the assay on Hyperlipidemic Hamster (setting [2]) it was -19%.

As for `COc1ccc(N2C(=O)[C@@H](CCCc3ccccc3)[C@H]2c2ccc(CO)cc2)cc1` (relative stereo) [Example 15A], the inhibition at 10 µM at ACAT came to 2%. For the same molecule, the change in vivo at 50 mg/kg in the assay with Hyperlipidemic Hamster (setting [1]) and in the assay with Hyperlipidemic Hamster (setting [2]) was 0% each time.

Regarding `COc1ccc([C@@H]2[C@H](CCCc3ccccc3)C(=O)N2c2ccc(O)cc2)cc1` (relative stereo) [Example 15B], at ACAT, the inhibition at 10 µM was -55%. Besides, the change in vivo at 50 mg/kg in the assay with Hyperlipidemic Hamster (setting [1]) was -18%; with Hyperlipidemic Hamster (setting [2]) it was 0%.

`COc1ccc(N2C(=O)[C@@H](CCCc3ccccc3)[C@@H]2c2ccc(CO)cc2)cc1` (relative stereo) [Example 15]: the inhibition at 10 µM at ACAT was -6%. The change in vivo at 50 mg/kg was -46% with Hyperlipidemic Hamster (setting [1]) and -21% with Hyperlipidemic Hamster (setting [2]).

Turning to `COc1ccc(N2C(=O)[C@H](CCCc3ccccc3)[C@H]2c2ccc(C=O)cc2)cc1` (relative stereo) [Example 16A], the inhibition at 10 µM at ACAT came out at 55%. In addition, the change in vivo at 50 mg/kg is -53% in the assay on Hyperlipidemic Hamster (setting [1]) and -30% with Hyperlipidemic Hamster (setting [2]).

Regarding `COc1ccc(N2C(=O)[C@@H](CCCc3ccccc3)[C@H]2c2ccc(C=O)cc2)cc1` (relative stereo) [Example 16], the inhibition at 10 µM on ACAT amounted to 42%. Further, the change in vivo at 50 mg/kg was -29% in the assay on Hyperlipidemic Hamster (setting [1]) and -25% in the assay on Hyperlipidemic Hamster (setting [2]).

As for `COc1ccc(N2C(=O)[C@@H](CCCc3ccccc3)[C@H]2c2ccc(S(C)(=O)=O)cc2)cc1` (relative stereo) [Example 17A], on ACAT, the inhibition at 10 µM is 38%. For the same molecule, the results for the change in vivo at 50 mg/kg in the assay on Hyperlipidemic Hamster (setting [1]) and with Hyperlipidemic Hamster (setting [2]) were -25% and -11%, respectively.

Consider `COc1ccc(N2C(=O)[C@@H](CCCc3ccccc3)[C@H]2c2ccc([S+](C)[O-])cc2)cc1` (relative stereo) [Example 17], for which the inhibition at 10 µM on ACAT was 25%. Also, the change in vivo at 50 mg/kg in the assay with Hyperlipidemic Hamster (setting [1]) was -52%; in the assay with Hyperlipidemic Hamster (setting [2]), -17%.

Regarding `COc1ccc(N2C(=O)[C@@H](CCCc3ccccc3)[C@H]2c2ccc(CN3CCOCC3)cc2)cc1` (relative stereo) [Example 19A], the inhibition at 10 µM on ACAT turned out to be 64%. Moreover, the change in vivo at 50 mg/kg is -34% in the assay on Hyperlipidemic Hamster (setting [1]) and -20% in the assay with Hyperlipidemic Hamster (setting [2]).

For `COc1ccc(N2C(=O)[C@H](CCCc3ccccc3)[C@@H]2c2ccc(CN3CCN(C)CC3)cc2)cc1` (relative stereo) [Example 19B], the inhibition at 10 µM at ACAT worked out at 53%. Moreover, the change in vivo at 50 mg/kg with Hyperlipidemic Hamster (setting [1]) was -31%; in the assay with Hyperlipidemic Hamster (setting [2]), -26%.

On to `COc1ccc(N2C(=O)[C@H](CCCc3ccccc3)[C@H]2c2ccc(CN3CCOCC3)cc2)cc1` (relative stereo) [Example 19], for which the inhibition at 10 µM at ACAT turned out to be 24%. Besides, the change in vivo at 50 mg/kg in the assay on Hyperlipidemic Hamster (setting [1]) was -51%; in the assay with Hyperlipidemic Hamster (setting [2]), -20%.

As for `CCOc1ccc(N2C(=O)[C@H](CCCc3ccccc3)[C@@H]2c2ccc(OC)cc2)cc1` (relative stereo) [Example 35B], the inhibition at 10 µM at ACAT was 65%. The change in vivo at 50 mg/kg is -99% in the assay with Hyperlipidemic Hamster (setting [1]) and -53% in the assay on Hyperlipidemic Hamster (setting [2]).

With `COc1ccc([C@H]2[C@@H](CCCc3ccccc3)C(=O)N2c2ccc(OCc3ccccc3)cc2)cc1` (relative stereo) [Example 35], the inhibition at 10 µM at ACAT was 18%. Moreover, the change in vivo at 50 mg/kg was -32% with Hyperlipidemic Hamster (setting [1]) and -15% with Hyperlipidemic Hamster (setting [2]).

`CCCCCCCCCC[C@]1(CC)C(=O)N(c2ccc(OC)cc2)[C@H]1c1ccccc1` (stereo in doubt) [Example 3Q]: the inhibition at 10 µM on ACAT is 3%. Further, the change in vivo at 50 mg/kg in the assay with Hyperlipidemic Hamster (setting [1]) is 0%; in the assay with Hyperlipidemic Hamster (setting [2]), -6%.

In the case of `COc1ccc(N2C(=O)C(c3ccccc3)(C3CCCC3)C2c2ccccc2)cc1` (stereo not shown) [Example 1AC], the inhibition at 10 µM on ACAT was 40%. For the same molecule, the change in vivo at 50 mg/kg with Hyperlipidemic Hamster (setting [1]) is -33%; in the assay on Hyperlipidemic Hamster (setting [2]), -16%.

For the molecule `COc1cc(OC)c(N2C(=O)C(CCCc3ccccc3)C2c2ccccc2)c(OC)c1` (stereo not shown) [Example 1F], at ACAT, the inhibition at 10 µM turned out to be 61%. Also, the change in vivo at 50 mg/kg in the assay on Hyperlipidemic Hamster (setting [1]) was found to be 20%; in the assay on Hyperlipidemic Hamster (setting [2]) it was 0%.

As to `CCCCCCCCCCC1C(=O)N(c2c(OC)cc(OC)cc2OC)C1c1ccccc1` (stereo not shown) [Example 1U], the inhibition at 10 µM at ACAT was 58%. Also, the IC50 on ACAT (rat liver microsomes, read-out: ACAT (in vitro) IC50) worked out at 19 µM. The change in vivo at 50 mg/kg with Hyperlipidemic Hamster (setting [1]) and in the assay on Hyperlipidemic Hamster (setting [2]) was 0% throughout.

For the molecule `COc1ccc(N2C(=O)C(CCCc3ccccc3)(CCCc3ccccc3)C2C=Cc2ccccc2)cc1` (stereo not shown) [Example 3N], at ACAT, the inhibition at 10 µM worked out at 62%. Further, the change in vivo at 50 mg/kg with Hyperlipidemic Hamster (setting [1]) and in the assay with Hyperlipidemic Hamster (setting [2]) was 0% throughout.

Regarding `COc1ccc(C2N(c3ccc(OC)cc3)C(=O)C2(c2ccccc2)c2ccccc2)cc1` (stereo not shown) [Example 7AC], on ACAT, the inhibition at 10 µM came out at 31%. The change in vivo at 50 mg/kg in the assay on Hyperlipidemic Hamster (setting [1]) and in the assay on Hyperlipidemic Hamster (setting [2]) was 0% each time.

As a reminder, the IC50 is the concentration at which inhibition is half-maximal.

Source of the values: patent US5688787A, “Substituted β-lactam compounds useful as hypochlesterolemic agents and processes for the preparation thereof” (priority 1996, dated 1997).
